Data: paper PMC5516028, “Molecular tools for GABAA receptors: High affinity ligands for β1-containing subtypes” (Scientific Reports, 2017)
“And” between values parts separate entries of the source, which are not always exact repeats. Equal values may be shown once. One block for each molecule: values may come before it.

Tests used:
Assay type in all cases: cell-based
α1β1R41N GABAA receptors = molecular target: T1, α1β1R41N GABAA receptors (Rattus norvegicus, UniProt P15431+P62813, R66N); experiment: Two electrode voltage clamp in Xenopus laevis oocytes, mutant α1β1R41N
T1 construct: expressed in transfected cells; host or cells: Xenopus laevis oocytes, mRNA injected
T1 sequence (P62813 28-455): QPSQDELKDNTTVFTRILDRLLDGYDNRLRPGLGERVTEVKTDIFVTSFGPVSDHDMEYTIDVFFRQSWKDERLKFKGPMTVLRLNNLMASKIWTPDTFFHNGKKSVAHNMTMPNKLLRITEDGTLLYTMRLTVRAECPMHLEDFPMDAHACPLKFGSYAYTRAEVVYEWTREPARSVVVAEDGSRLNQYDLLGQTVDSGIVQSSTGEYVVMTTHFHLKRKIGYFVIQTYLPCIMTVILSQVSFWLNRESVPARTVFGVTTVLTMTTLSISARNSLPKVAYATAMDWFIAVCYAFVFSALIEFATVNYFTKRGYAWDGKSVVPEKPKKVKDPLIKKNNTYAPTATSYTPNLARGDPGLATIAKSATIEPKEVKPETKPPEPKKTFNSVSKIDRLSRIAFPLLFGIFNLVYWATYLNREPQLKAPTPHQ
T1 sequence (P15431 26-474 R66N): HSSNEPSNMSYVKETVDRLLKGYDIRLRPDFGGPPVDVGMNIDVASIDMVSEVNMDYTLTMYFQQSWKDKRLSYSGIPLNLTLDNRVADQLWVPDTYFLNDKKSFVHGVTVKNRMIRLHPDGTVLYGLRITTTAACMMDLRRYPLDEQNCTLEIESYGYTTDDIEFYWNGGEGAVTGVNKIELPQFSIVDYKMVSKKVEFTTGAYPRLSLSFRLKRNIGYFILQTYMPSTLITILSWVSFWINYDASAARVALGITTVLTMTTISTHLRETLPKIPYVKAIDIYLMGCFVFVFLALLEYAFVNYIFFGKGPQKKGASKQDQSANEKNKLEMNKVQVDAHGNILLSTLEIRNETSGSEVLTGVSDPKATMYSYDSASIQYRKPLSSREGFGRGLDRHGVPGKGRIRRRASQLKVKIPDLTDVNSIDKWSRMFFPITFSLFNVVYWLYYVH
Source text: (§1) cDNA’s of rat GABAA receptor subunits α1, α4, β1, β2, β3 and γ2S were cloned as described. cDNAs of the rat subunits α2, α3 and α5 were gifts from P. Malherbe, that of α6 and γ1 were gifts of P. Seeburg and that of δ was a gift of C. Czajkowski. The mutants were constructed using the Q5 Site-Directed Mutagenesis Kit (New England Biolabs) following manufacturer’s instruction. We used the wild-type rat β3-pCI vector as template and the primers […] and […] resulting in a substitution of amino acid N41 (AAC) to R (AGG). We used the wild-type rat β1-pCI vector as template and the primers […] and […] resulting in a substitution of amino acid R41 (CGG) to N (AAC). The mutated subunits were confirmed by sequencing.
(§2) In vitro transcription of mRNA was based on the cDNA expression vectors encoding for rat GABAA receptor subunits α1–6, β1-3, γ1,2, δ and the two β mutants (β1R41N and β3N41R)[40]. After linearizing the cDNA vectors with appropriate restriction endonucleases, the cDNA was purified and concentrated with the DNA Clean and Contentrator ^TM Kit (Zymoresearch, Catalog No. D4005). Capped transcripts of the purified cDNA were produced using the mMESSAGE mMACHINE® T7 transcription kit (Ambion, TX, USA) and polyadenylated using the Ambion PolyA tailing kit (Ambion). After transcription and polyadenylation the RNA was purified with the MEGAclear ^TM Kit (Ambion, Catalog No. AM1908). The final RNA concentration was measured on NanoDrop® ND-1000 and finally diluted and stored in diethylpyrocarbonate-treated water at −80 °C. For the microinjection, the RNA of αβ receptor combinations was mixed at 1:1 ratio (which leads to αβ receptors that consist of predominantly 3 beta and 2 alpha subunits[27]), for αkβlγm (k = 1–3, l = 1, 3, m = 1, 2) receptors at 1:1:5 ratio, for αkβ3γ2 (k = 4–6) and αkβlδ (k = 1, 4 and 6, l = 1, 3) receptor combinations at 3:1:5 ratio.
(§3) Mature female Xenopus laevis (Nasco, WI) were anesthetized in a bath of ice-cold 0.17% Tricain (Ethyl-m-aminobenzoate, Sigma, MO) before decapitation in full accordance with all rules of the Austrian animal protection law (see http://www.ris.bka.gv.at/Dokumente/BgblAuth/BGBLA_2012_I_114/BGBLA_2012_I_114.pdf) and the Austrian animal experiment by-laws (see https://www.ris.bka.gv.at/Dokumente/BgblAuth/BGBLA_2012_II_522/BGBLA_2012_II_522.pdf) which implement the European Directive 2010/63/EU (see http://eur-lex.europa.eu/LexUriServ/LexUriServ.do?uri=OJ:L:2010:276:0033:0079:en:PDF) into the Austrian law (all information accessed on July 27, 2016). The frog’s ovaries were transferred to ND96 medium (96 mM NaCl, 2 mM KCl, 1 mM MgCl2, 5 mM HEPES; pH 7.5). Stage 5–6 oocytes with the follicle cell layer around them were roughly dissected with forceps into packages of 10–15 cells and washed in Ca^2+-free ND96 medium. Cells were then digested with collagenase (type IA, Sigma, NO, 1 mg/mL ND96) at 18 °C shaking at 30 rpm for 30–60 minutes and gently defolliculated with the aid of a glass pipette with appropriate tip diameter and a platinum loop. Defolliculated cells were stored at 18 °C for at least 6 hours in ND96 solution containing penicillin G (10000 IU/100 mL) and streptomycin (10 mg/100 mL) in order to preselect and exclude damaged cells from further treatment. Healthy defolliculated oocytes were injected with an aqueous solution of mRNA. A total of 4.5 ng of mRNA per oocyte was injected with a Nanoject II (Drummond). After injection of mRNA, oocytes were incubated at 18 °C (ND96 + antibiotic) for 2–3 days for αβ receptors and for 3–4 days for αβγ or αβδ receptors before recording. When cells were measured at later time points, oocytes were stored at +4 °C instead of 18 °C.
(§4) For electrophysiological recordings, oocytes were placed on a nylon-grid in a bath of Ca^2+-containing NDE solution medium [96 mM NaCl, 5 mM HEPES-NaOH (pH 7.5), 2 mM KCl, 1 mM MgCl2, 1.8 mM CaCl2].

α1β1 GABAA receptors = molecular target: T2, α1β1 GABAA receptors (Rattus norvegicus, UniProt P15431+P62813); experiment: Two electrode voltage clamp in Xenopus laevis oocytes, α1β1
T2 construct: expressed in transfected cells; host or cells: Xenopus laevis oocytes, mRNA injected
T2 sequence (P62813 28-455): as the sequence (P62813 28-455) above
T2 sequence (P15431 26-474): as the sequence (P15431 26-474 R66N) above, with N41R counted along it
Source text: as §1, §2, §3, §4

α1β3 GABAA receptors = molecular target: T3, α1β3 GABAA receptors (Rattus norvegicus, UniProt P62813+P63079); experiment: Two electrode voltage clamp in Xenopus laevis oocytes, α1β3; settings: α1β3
T3 construct: expressed in transfected cells; host or cells: Xenopus laevis oocytes, mRNA injected
T3 sequence (P62813 28-455): as the sequence (P62813 28-455) above
T3 sequence (P63079 26-473): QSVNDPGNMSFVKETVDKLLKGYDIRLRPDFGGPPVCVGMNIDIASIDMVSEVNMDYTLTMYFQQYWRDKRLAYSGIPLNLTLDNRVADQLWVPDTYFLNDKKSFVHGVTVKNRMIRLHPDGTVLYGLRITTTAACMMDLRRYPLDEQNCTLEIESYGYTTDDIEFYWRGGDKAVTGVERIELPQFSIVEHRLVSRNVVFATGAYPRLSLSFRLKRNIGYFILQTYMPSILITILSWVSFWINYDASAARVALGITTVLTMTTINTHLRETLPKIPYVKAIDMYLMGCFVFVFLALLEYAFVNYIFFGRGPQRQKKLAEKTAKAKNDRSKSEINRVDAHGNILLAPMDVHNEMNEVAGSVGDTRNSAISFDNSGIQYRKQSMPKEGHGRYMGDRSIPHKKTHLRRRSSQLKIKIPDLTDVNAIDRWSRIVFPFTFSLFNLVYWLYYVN
Source text: as §1, §2, §3, §4

α1β3N41R GABAA receptors = molecular target: T4, α1β3N41R GABAA receptors (Rattus norvegicus, UniProt P62813+P63079, N66R); experiment: Two electrode voltage clamp in Xenopus laevis oocytes, mutant α1β3N41R
T4 construct: expressed in transfected cells; host or cells: Xenopus laevis oocytes, mRNA injected
T4 sequence (P62813 28-455): as the sequence (P62813 28-455) above
T4 sequence (P63079 26-473 N66R): as the sequence (P63079 26-473) above, with N41R counted along it
Source text: as §1, §2, §3, §4

α1β2 GABAA receptors = molecular target: T5, α1β2 GABAA receptors (Rattus norvegicus, UniProt P62813+P63138); experiment: Two electrode voltage clamp in Xenopus laevis oocytes, α1β2; settings: α1β2
T5 construct: expressed in transfected cells; host or cells: Xenopus laevis oocytes, mRNA injected
T5 sequence (P62813 28-455): as the sequence (P62813 28-455) above
T5 sequence (P63138 25-474 limits assumed): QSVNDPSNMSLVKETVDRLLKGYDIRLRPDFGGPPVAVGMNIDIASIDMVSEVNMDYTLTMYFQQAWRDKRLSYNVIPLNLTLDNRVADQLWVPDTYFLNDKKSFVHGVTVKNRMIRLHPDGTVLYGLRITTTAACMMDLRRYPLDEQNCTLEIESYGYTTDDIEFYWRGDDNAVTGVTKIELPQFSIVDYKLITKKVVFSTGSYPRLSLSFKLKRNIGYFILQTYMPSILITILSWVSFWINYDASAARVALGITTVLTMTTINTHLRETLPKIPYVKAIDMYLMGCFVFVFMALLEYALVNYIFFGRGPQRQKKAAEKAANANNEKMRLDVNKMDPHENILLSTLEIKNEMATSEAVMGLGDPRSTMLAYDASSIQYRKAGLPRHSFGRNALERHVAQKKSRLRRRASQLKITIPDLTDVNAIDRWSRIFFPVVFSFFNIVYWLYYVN
Source text: as §1, §2, §3, §4

α1β1δ GABAA receptors = molecular target: T6, α1β1δ GABAA receptors (Rattus norvegicus, UniProt P15431+P62813); experiment: Two electrode voltage clamp in Xenopus laevis oocytes, α1β1δ
T6 construct: expressed in transfected cells; host or cells: Xenopus laevis oocytes, mRNA injected
T6 sequence (P62813 28-455): as the sequence (P62813 28-455) above
T6 sequence (P15431 26-474): as the sequence (P15431 26-474 R66N) above, with N41R counted along it
T6 sequence (P18506 17-449 partner limits assumed): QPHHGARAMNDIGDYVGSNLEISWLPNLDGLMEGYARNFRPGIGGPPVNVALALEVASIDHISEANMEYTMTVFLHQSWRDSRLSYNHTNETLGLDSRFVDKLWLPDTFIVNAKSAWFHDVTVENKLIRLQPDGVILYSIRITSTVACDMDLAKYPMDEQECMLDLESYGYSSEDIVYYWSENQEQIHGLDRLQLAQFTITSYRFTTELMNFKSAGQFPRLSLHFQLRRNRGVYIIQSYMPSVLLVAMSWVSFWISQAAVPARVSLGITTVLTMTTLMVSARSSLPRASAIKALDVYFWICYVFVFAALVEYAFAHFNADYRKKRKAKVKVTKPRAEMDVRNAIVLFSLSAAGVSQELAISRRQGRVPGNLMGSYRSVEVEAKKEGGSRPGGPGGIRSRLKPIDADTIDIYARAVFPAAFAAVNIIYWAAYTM
Source text: as §1, §2, §3, §4

α1β1γ1 GABAA receptors = molecular target: T7, α1β1γ1 GABAA receptors (Rattus norvegicus, UniProt P15431+P62813); experiment: Two electrode voltage clamp in Xenopus laevis oocytes, α1β1γ1
T7 construct: expressed in transfected cells; host or cells: Xenopus laevis oocytes, mRNA injected
T7 sequence (P62813 28-455): as the sequence (P62813 28-455) above
T7 sequence (P15431 26-474): as the sequence (P15431 26-474 R66N) above, with N41R counted along it
T7 sequence (P23574 36-465 partner limits assumed): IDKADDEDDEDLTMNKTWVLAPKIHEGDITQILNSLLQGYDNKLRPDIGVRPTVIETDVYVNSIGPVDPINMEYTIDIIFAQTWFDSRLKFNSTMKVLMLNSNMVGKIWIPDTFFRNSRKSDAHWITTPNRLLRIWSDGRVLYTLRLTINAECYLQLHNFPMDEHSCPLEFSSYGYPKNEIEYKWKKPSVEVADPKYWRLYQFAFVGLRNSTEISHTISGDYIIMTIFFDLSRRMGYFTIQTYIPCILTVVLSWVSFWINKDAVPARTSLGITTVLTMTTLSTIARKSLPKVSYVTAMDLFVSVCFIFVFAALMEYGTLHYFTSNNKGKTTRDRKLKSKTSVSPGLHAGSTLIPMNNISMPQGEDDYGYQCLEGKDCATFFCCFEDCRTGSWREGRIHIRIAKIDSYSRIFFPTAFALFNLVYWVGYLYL
Source text: as §1, §2, §3, §4

GABA current amplitude (α1β1R41N GABAA receptors; 100 nM GABA): 0.1±0.0 µA
GABA current amplitude (α1β1R41N GABAA receptors; 1 µM GABA): 0.7±0.1 µA
GABA current amplitude (α1β1R41N GABAA receptors; 10 μM GABA): 2.3±0.5 µA
GABA current amplitude (α1β1R41N GABAA receptors; 100 µM GABA): 2.9±0.7 µA
GABA current amplitude (α1β1R41N GABAA receptors; 1 mM GABA): 2.8±0.8 µA
GABA Hill slope (nH) (α1β1R41N GABAA receptors; GABA dose-response curve): 1.2±0.1 and ~ 1.2
GABA current amplitude (α1β1 GABAA receptors; α1β1, 100 nM GABA): 0.1±0.0 µA
GABA current amplitude (α1β1 GABAA receptors; α1β1, 1 µM GABA): 0.7±0.1 µA
GABA current amplitude (α1β1 GABAA receptors; α1β1, 10 μM GABA): 2.2±0.3 µA
GABA current amplitude (α1β1 GABAA receptors; α1β1, 100 µM GABA): 3.1±0.4 µA
GABA current amplitude (α1β1 GABAA receptors; α1β1, 1 mM GABA): 4.0±0.5 µA
GABA Hill slope (nH) (α1β1 GABAA receptors; α1β1, GABA dose-response curve): 0.6±0.3
GABA current amplitude (α1β3 GABAA receptors; 100 nM GABA): 0.0±0.0 µA
GABA current amplitude (α1β3 GABAA receptors; 1 µM GABA): 0.5±0.1 µA
GABA current amplitude (α1β3 GABAA receptors; 10 μM GABA): 1.9±0.3 µA
GABA current amplitude (α1β3 GABAA receptors; 100 µM GABA): 2.7±0.4 µA
GABA current amplitude (α1β3 GABAA receptors; 1 mM GABA): 3.5±0.5 µA
GABA Hill slope (nH) (α1β3 GABAA receptors; GABA dose-response curve): 0.7±0.0
GABA current amplitude (α1β3N41R GABAA receptors; 100 nM GABA): 0.0±0.0 µA
GABA current amplitude (α1β3N41R GABAA receptors; 1 µM GABA): 1.3±0.5 µA
GABA current amplitude (α1β3N41R GABAA receptors; 10 μM GABA): 3.5±0.9 µA
GABA current amplitude (α1β3N41R GABAA receptors; 100 µM GABA): 4.0±1.1 µA
GABA current amplitude (α1β3N41R GABAA receptors; 1 mM GABA): 4.1±1.2 µA
GABA Hill slope (nH) (α1β3N41R GABAA receptors; GABA dose-response curve): 1.2±0.1 and ~ 1.2
GABA current amplitude (α1β2 GABAA receptors; 100 nM GABA): 0.0±0.0 µA
GABA current amplitude (α1β2 GABAA receptors; 1 µM GABA): 0.5±0.2 µA
GABA current amplitude (α1β2 GABAA receptors; 10 μM GABA): 1.9±0.5 µA
GABA current amplitude (α1β2 GABAA receptors; 100 µM GABA): 2.6±0.6 µA
GABA current amplitude (α1β2 GABAA receptors; 1 mM GABA): 3.1±0.7 µA
GABA Hill slope (nH) (α1β2 GABAA receptors; GABA dose-response curve): 0.7±0.1
SMILES: NCCCC(=O)O [GABA, γ-Aminobutyric acid]

shift of modulatory dose-response relative to parent compound 1 (α1β1 GABAA receptors; α1β1, α1β1γ1 and α1β1δ receptors (Fig. 6), versus compound 1): approximately twenty-fold right shift
EC50 (α1β1δ GABAA receptors; read-out: EC50): 2300 nM
activity at 0.003 µM (α1β1δ GABAA receptors; read-out: efficacy, % of control current (GABA EC3-5 = 100%), α1β1δ, 3 nM): 100 ± 0.7%
activity at 0.01 µM (α1β1δ GABAA receptors; read-out: efficacy, % of control current (GABA EC3-5 = 100%), α1β1δ, 10 nM): 106 ± 2.8%
activity at 0.03 µM (α1β1δ GABAA receptors; read-out: efficacy, % of control current (GABA EC3-5 = 100%), α1β1δ, 30 nM): 108 ± 5.2%
activity at 0.1 µM (α1β1δ GABAA receptors; read-out: efficacy, % of control current (GABA EC3-5 = 100%), α1β1δ, 100 nM): 128 ± 3.4%
activity at 0.3 µM (α1β1δ GABAA receptors; read-out: efficacy, % of control current (GABA EC3-5 = 100%), α1β1δ, 300 nM): 163 ± 6.2%
activity at 1 µM (α1β1δ GABAA receptors; read-out: efficacy, % of control current (GABA EC3-5 = 100%), α1β1δ, 1 µM): 381 ± 48.7%
activity at 3 µM (α1β1δ GABAA receptors; read-out: efficacy, % of control current (GABA EC3-5 = 100%), α1β1δ, 3 µM): 636 ± 116%
activity at 10 µM (α1β1δ GABAA receptors; read-out: efficacy, % of control current (GABA EC3-5 = 100%), α1β1δ, 10 µM): 885 ± 293%
Hill slope (nH) (α1β1δ GABAA receptors; α1β1δ): 1.1±0.8
EC50 (α1β1γ1 GABAA receptors): 21 µM
activity at 0.003 µM (α1β1γ1 GABAA receptors; read-out: efficacy, % of control current (GABA EC3-5 = 100%), α1β1γ1, 3 nM): 105.1 ± 0.7%
activity at 0.01 µM (α1β1γ1 GABAA receptors; read-out: efficacy, % of control current (GABA EC3-5 = 100%), α1β1γ1, 10 nM): 106 ± 1.9%
activity at 0.03 µM (α1β1γ1 GABAA receptors; read-out: efficacy, % of control current (GABA EC3-5 = 100%), α1β1γ1, 30 nM): 108 ± 1.4%
activity at 0.1 µM (α1β1γ1 GABAA receptors; read-out: efficacy, % of control current (GABA EC3-5 = 100%), α1β1γ1, 100 nM): 112 ± 0.9%
activity at 1 µM (α1β1γ1 GABAA receptors; read-out: efficacy, % of control current (GABA EC3-5 = 100%), α1β1γ1, 1 µM): 121 ± 3.2%
activity at 3 µM (α1β1γ1 GABAA receptors; read-out: efficacy, % of control current (GABA EC3-5 = 100%), α1β1γ1, 3 µM): 159 ± 3.2%
activity at 10 µM (α1β1γ1 GABAA receptors; read-out: efficacy, % of control current (GABA EC3-5 = 100%), α1β1γ1, 10 µM): 175 ± 13.6%
Hill slope (nH) (α1β1γ1 GABAA receptors; α1β1γ1): 0.6±0.2
SMILES: COc1ccc(-n2nc3c4cc(Cl)cc(C(C)(C)C)c4[nH]cc-3c2=O)cc1 [Compound 7, 6-(tert-Butyl)-8-chloro-2-(4-methoxyphenyl)-2,5-dihydro-3H-pyrazolo[4,3-c]quinolin-3-one]
